Assay results reported in patent publication US20230263822A1, “MODULATION OF FACTOR 11 EXPRESSION” (Ionis Pharmaceuticals, Inc., priority 2008, published 2023).

Assays:
Format in all cases: cell-based
human Factor 11 mRNA [1] = assay: Dose-dependent inhibition of human Factor 11 in HepG2 cells, lipofectin 2.34-75 nM (Example 5); conditions: for percent inhibition of human Factor 11 mRNA relative to untreated control cells: ~16 hours
Description: (§1) Cells were plated at a density of 10,000 cells per well and transfected using lipofectin reagent with 2.34 nM, 4.69 nM, 9.375 nM, 18.75 nM, 37.5 nM, and 75 nM concentrations of antisense oligonucleotide, as specified in Table 11. After a treatment period of approximately 16 hours, RNA was isolated from the cells and human Factor 11 mRNA levels were measured by quantitative real-time PCR. Human Factor 11 primer probe set RTS 2966 was used to measure mRNA levels. Factor 11 mRNA levels were adjusted according to total RNA content, as measured by RIBOGREEN. Results are presented as percent inhibition of human Factor 11, relative to untreated control cells.

human Factor 11 mRNA [2] = assay: Dose-dependent inhibition of human Factor 11 in HepG2 cells, electroporation 625-20,000 nM (Example 5); conditions: ~16 hours
Description: The gapmers were also transfected via electroporation and their dose dependent inhibition of human Factor 11 mRNA was measured. Cells were plated at a density of 20,000 cells per well and transfected via electroporation with 625 nM, 1250 nM, 2500 nM, 5,000 nM, 10,000 nM, and 20,000 nM concentrations of antisense oligonucleotide, as specified in Table 12. After a treatment period of approximately 16 hours, RNA was isolated from the cells and human Factor 11 mRNA levels were measured by quantitative real-time PCR. Human Factor 11 primer probe set RTS 2966 was used to measure mRNA levels. Factor 11 mRNA levels were adjusted according to total RNA content, as measured by RIBOGREEN. Results are presented as percent inhibition of human Factor 11, relative to untreated control cells.

human Factor 11 mRNA [3] = assay: Dose-dependent inhibition of human Factor 11 in HepB3 cells, lipofectin (Example 7); conditions: for percent inhibition of Factor 11 mRNA relative to untreated control cells: ~16 hours
Description: as §1, with “4,000” for “10,000”, “2.3” for “2.34”, “4.7” for “4.69”, “9.4” for “9.375”, “14.” for “11.”, “of” for “of human”

“416925 (antisense GGTGCACAGTTTCTGGCAGG; 3-14-3 gapmer chemistry, further chemistry not given here) [compound 416925]” was tested. Which IC50 (human Factor 11 mRNA [1]) did it give?
The IC50 was 13 nM.

What about the “percent inhibition of human Factor 11 mRNA relative to untreated control cells” value (human Factor 11 mRNA [1]; 2.34 nM) of the same substance?
Its value is 24%.

And the “percent inhibition of human Factor 11 mRNA relative to untreated control cells” value (human Factor 11 mRNA [1]; 4.69 nM)?
The value was 34%.

What about the “percent inhibition of human Factor 11 mRNA relative to untreated control cells” value (human Factor 11 mRNA [1]; 9.375 nM) of the same substance?
The value was 45%.

And the “percent inhibition of human Factor 11 mRNA relative to untreated control cells” value (human Factor 11 mRNA [1]; 18.75 nM)?
The value was 56%.

And the “percent inhibition of human Factor 11 mRNA relative to untreated control cells” value (human Factor 11 mRNA [1]; 37.5 nM)?
Its value is 67%.

What about the “percent inhibition of human Factor 11 mRNA relative to untreated control cells” value (human Factor 11 mRNA [1]; 75 nM) of the same substance?
Its value is 72%.

And the “percent inhibition of human Factor 11 mRNA relative to untreated control cells” value (human Factor 11 mRNA [2]; 625 nM)?
The value was 64%.

And the “percent inhibition of human Factor 11 mRNA relative to untreated control cells” value (human Factor 11 mRNA [2]; 1250 nM)?
Its value is 80%.

What about the “percent inhibition of human Factor 11 mRNA relative to untreated control cells” value (human Factor 11 mRNA [2]; 2500 nM) of the same substance?
Its value is 88%.

What about the “percent inhibition of human Factor 11 mRNA relative to untreated control cells” value (human Factor 11 mRNA [2]; 5000 nM) of the same substance?
The value was 91%.

What about the “percent inhibition of human Factor 11 mRNA relative to untreated control cells” value (human Factor 11 mRNA [2]; 10000 nM) of the same substance?
Its value is 95%.

And the “percent inhibition of human Factor 11 mRNA relative to untreated control cells” value (human Factor 11 mRNA [2]; 20000 nM)?
Its value is 96%.

And the IC50 (human Factor 11 mRNA [3])?
The IC50 was 12 nM.

And the “percent inhibition of Factor 11 mRNA relative to untreated control cells” value (human Factor 11 mRNA [3]; 2.3 nM)?
Its value is 26%.

And the “percent inhibition of Factor 11 mRNA relative to untreated control cells” value (human Factor 11 mRNA [3]; 4.7 nM)?
Its value is 33%.

And the “percent inhibition of Factor 11 mRNA relative to untreated control cells” value (human Factor 11 mRNA [3]; 9.4 nM)?
The value was 45%.

And the “percent inhibition of Factor 11 mRNA relative to untreated control cells” value (human Factor 11 mRNA [3]; 18.75 nM)?
The value was 59%.

What about the “percent inhibition of Factor 11 mRNA relative to untreated control cells” value (human Factor 11 mRNA [3]; 37.5 nM) of the same substance?
The value was 72%.

And the “percent inhibition of Factor 11 mRNA relative to untreated control cells” value (human Factor 11 mRNA [3]; 75 nM)?
The value was 60%.

With “416999 (antisense GCACAGTTTCTGGCAGGCCT; 2-13-5 gapmer chemistry, further chemistry not given here) [compound 416999]” as the substance, how does the IC50 (human Factor 11 mRNA [1]) read?
Its IC50 is 14 nM.

And the “percent inhibition of human Factor 11 mRNA relative to untreated control cells” value (human Factor 11 mRNA [1]; 2.34 nM)?
The value was 10%.

And the “percent inhibition of human Factor 11 mRNA relative to untreated control cells” value (human Factor 11 mRNA [1]; 4.69 nM)?
The value was 26%.

And the “percent inhibition of human Factor 11 mRNA relative to untreated control cells” value (human Factor 11 mRNA [1]; 9.375 nM)?
The value was 42%.

And the “percent inhibition of human Factor 11 mRNA relative to untreated control cells” value (human Factor 11 mRNA [1]; 18.75 nM)?
Its value is 62%.

And the “percent inhibition of human Factor 11 mRNA relative to untreated control cells” value (human Factor 11 mRNA [1]; 37.5 nM)?
Its value is 72%.

And the “percent inhibition of human Factor 11 mRNA relative to untreated control cells” value (human Factor 11 mRNA [1]; 75 nM)?
The value was 80%.

And the “percent inhibition of human Factor 11 mRNA relative to untreated control cells” value (human Factor 11 mRNA [2]; 625 nM)?
Its value is 61%.

What about the “percent inhibition of human Factor 11 mRNA relative to untreated control cells” value (human Factor 11 mRNA [2]; 1250 nM) of the same substance?
The value was 82%.

What about the “percent inhibition of human Factor 11 mRNA relative to untreated control cells” value (human Factor 11 mRNA [2]; 2500 nM) of the same substance?
Its value is 89%.

What about the “percent inhibition of human Factor 11 mRNA relative to untreated control cells” value (human Factor 11 mRNA [2]; 5000 nM) of the same substance?
The value was 94%.

What about the “percent inhibition of human Factor 11 mRNA relative to untreated control cells” value (human Factor 11 mRNA [2]; 10000 nM) of the same substance?
Its value is 94%.

What about the “percent inhibition of human Factor 11 mRNA relative to untreated control cells” value (human Factor 11 mRNA [2]; 20000 nM) of the same substance?
The value was 97%.

And the IC50 (human Factor 11 mRNA [3])?
The IC50 was 12 nM.

And the “percent inhibition of Factor 11 mRNA relative to untreated control cells” value (human Factor 11 mRNA [3]; 2.3 nM)?
The value was 19%.

And the “percent inhibition of Factor 11 mRNA relative to untreated control cells” value (human Factor 11 mRNA [3]; 4.7 nM)?
Its value is 33%.

And the “percent inhibition of Factor 11 mRNA relative to untreated control cells” value (human Factor 11 mRNA [3]; 9.4 nM)?
The value was 42%.

And the “percent inhibition of Factor 11 mRNA relative to untreated control cells” value (human Factor 11 mRNA [3]; 18.75 nM)?
The value was 60%.

What about the “percent inhibition of Factor 11 mRNA relative to untreated control cells” value (human Factor 11 mRNA [3]; 37.5 nM) of the same substance?
The value was 71%.

And the “percent inhibition of Factor 11 mRNA relative to untreated control cells” value (human Factor 11 mRNA [3]; 75 nM)?
Its value is 59%.

What does the source list for “417002 (antisense GGTGCACAGTTTCTGGCAGG; 2-13-5 gapmer chemistry, further chemistry not given here) [compound 417002]”?
IC50 (human Factor 11 mRNA [1]): 12 nM; percent inhibition of human Factor 11 mRNA relative to untreated control cells (human Factor 11 mRNA [1]; 2.34 nM): 17%; percent inhibition of human Factor 11 mRNA relative to untreated control cells (human Factor 11 mRNA [1]; 4.69 nM): 26%; percent inhibition of human Factor 11 mRNA relative to untreated control cells (human Factor 11 mRNA [1]; 9.375 nM): 49%; percent inhibition of human Factor 11 mRNA relative to untreated control cells (human Factor 11 mRNA [1]; 18.75 nM): 61%; percent inhibition of human Factor 11 mRNA relative to untreated control cells (human Factor 11 mRNA [1]; 37.5 nM): 81%; percent inhibition of human Factor 11 mRNA relative to untreated control cells (human Factor 11 mRNA [1]; 75 nM): 84%; percent inhibition of human Factor 11 mRNA relative to untreated control cells (human Factor 11 mRNA [2]; 625 nM): 59%; percent inhibition of human Factor 11 mRNA relative to untreated control cells (human Factor 11 mRNA [2]; 1250 nM): 72%; percent inhibition of human Factor 11 mRNA relative to untreated control cells (human Factor 11 mRNA [2]; 2500 nM): 86%; percent inhibition of human Factor 11 mRNA relative to untreated control cells (human Factor 11 mRNA [2]; 5000 nM): 90%; percent inhibition of human Factor 11 mRNA relative to untreated control cells (human Factor 11 mRNA [2]; 10000 nM): 94%; percent inhibition of human Factor 11 mRNA relative to untreated control cells (human Factor 11 mRNA [2]; 20000 nM): 96%; IC50 (human Factor 11 mRNA [3]): 13 nM; percent inhibition of Factor 11 mRNA relative to untreated control cells (human Factor 11 mRNA [3]; 2.3 nM): 24%; percent inhibition of Factor 11 mRNA relative to untreated control cells (human Factor 11 mRNA [3]; 4.7 nM): 30%; percent inhibition of Factor 11 mRNA relative to untreated control cells (human Factor 11 mRNA [3]; 9.4 nM): 46%; percent inhibition of Factor 11 mRNA relative to untreated control cells (human Factor 11 mRNA [3]; 18.75 nM): 57%; percent inhibition of Factor 11 mRNA relative to untreated control cells (human Factor 11 mRNA [3]; 37.5 nM): 71%; percent inhibition of Factor 11 mRNA relative to untreated control cells (human Factor 11 mRNA [3]; 75 nM): 65%

With “417003 (antisense TGGTGCACAGTTTCTGGCAG; 2-13-5 gapmer chemistry, further chemistry not given here) [compound 417003]” as the substance, how does the IC50 (human Factor 11 mRNA [1]) read?
The IC50 was 11 nM.

What about the “percent inhibition of human Factor 11 mRNA relative to untreated control cells” value (human Factor 11 mRNA [1]; 2.34 nM) of the same substance?
Its value is 6%.

And the “percent inhibition of human Factor 11 mRNA relative to untreated control cells” value (human Factor 11 mRNA [1]; 4.69 nM)?
Its value is 29%.

What about the “percent inhibition of human Factor 11 mRNA relative to untreated control cells” value (human Factor 11 mRNA [1]; 9.375 nM) of the same substance?
The value was 48%.

What about the “percent inhibition of human Factor 11 mRNA relative to untreated control cells” value (human Factor 11 mRNA [1]; 18.75 nM) of the same substance?
Its value is 64%.

And the “percent inhibition of human Factor 11 mRNA relative to untreated control cells” value (human Factor 11 mRNA [1]; 37.5 nM)?
The value was 73%.

And the “percent inhibition of human Factor 11 mRNA relative to untreated control cells” value (human Factor 11 mRNA [1]; 75 nM)?
Its value is 82%.

And the “percent inhibition of human Factor 11 mRNA relative to untreated control cells” value (human Factor 11 mRNA [2]; 625 nM)?
Its value is 60%.

What about the “percent inhibition of human Factor 11 mRNA relative to untreated control cells” value (human Factor 11 mRNA [2]; 1250 nM) of the same substance?
The value was 74%.

And the “percent inhibition of human Factor 11 mRNA relative to untreated control cells” value (human Factor 11 mRNA [2]; 2500 nM)?
The value was 86%.

And the “percent inhibition of human Factor 11 mRNA relative to untreated control cells” value (human Factor 11 mRNA [2]; 5000 nM)?
The value was 90%.

What about the “percent inhibition of human Factor 11 mRNA relative to untreated control cells” value (human Factor 11 mRNA [2]; 10000 nM) of the same substance?
Its value is 95%.

And the “percent inhibition of human Factor 11 mRNA relative to untreated control cells” value (human Factor 11 mRNA [2]; 20000 nM)?
The value was 95%.

And the IC50 (human Factor 11 mRNA [3])?
The IC50 was 17 nM.

What about the “percent inhibition of Factor 11 mRNA relative to untreated control cells” value (human Factor 11 mRNA [3]; 2.3 nM) of the same substance?
The value was 11%.

What about the “percent inhibition of Factor 11 mRNA relative to untreated control cells” value (human Factor 11 mRNA [3]; 4.7 nM) of the same substance?
The value was 28%.

And the “percent inhibition of Factor 11 mRNA relative to untreated control cells” value (human Factor 11 mRNA [3]; 9.4 nM)?
The value was 40%.

What about the “percent inhibition of Factor 11 mRNA relative to untreated control cells” value (human Factor 11 mRNA [3]; 18.75 nM) of the same substance?
Its value is 40%.

And the “percent inhibition of Factor 11 mRNA relative to untreated control cells” value (human Factor 11 mRNA [3]; 37.5 nM)?
Its value is 63%.

And the “percent inhibition of Factor 11 mRNA relative to untreated control cells” value (human Factor 11 mRNA [3]; 75 nM)?
Its value is 58%.
